The subject of experiment [1] is TEAD response element (TRE) luciferase reporter in MCF-7 cell lines. The experiment in a line: TEAD response element (TRE) reporter assay. Format: cell-based. Conditions: Homo sapiens, MCF7; 0.2 μM compound, 24 hours, MCF-7 TEAD reporter cells, relative to vehicle (1% DMSO). On the procedure: MCF-7 cell lines injected with TEAD reporter genes expressing firefly luciferase upon activation of TEAD response element (TRE) were obtained from BPS bioscience (#60618). The TEAD reporter genes were injected to stable expression in the MCF-7 cell lines.
TEAD reporter genes expressing firefly luciferase upon activation of TEAD response element (TRE) were injected with TEAD reporter genes to ensure stable expression of the TEAD reporter genes. Here, the TEAD reporter genes expresses firefly luciferase upon activation of TEAD response element (TRE). The cells were cultured in a cell-only culture medium (BPS bioscience) to which 10 μg/mL insulin (Sigma) was added at 37° C. and 5% CO2.
In 24 hours after dispensing said cells into a 96-well plate, each of the compounds of the examples or a vehicle solvent (final 1% DMSO) was treated by being diluted with a serum-free culture medium so that the final concentration became 0.2 μM. In 24 hours after said treatment, a luciferase assay working solution (ONE-Step Luciferase assay reagent; BPS bioscience) containing a luciferase substrate was treated in each well at 100 μL, and then left in a shaker for 15 minutes to be well mixed. Then, a degree of luminescence generated by luciferase expressed according to TEAD activation was measured by a microplate reader (TECAN). A relative activity of luciferase […], and the results are shown in table 8 below.
(Reporter assays use an easily measured gene product as a stand-in for the process of interest.)

The target in experiment [2] is T1, recombinant GST-TEAD1 proteins (209 to 426 a.a.) (Homo sapiens, UniProt P28347).
T1 construct: recombinant GST-TEAD1 proteins (209 to 426 a.a.)
The experiment in a line: Evaluation of palmitoylation of TEAD protein. The class given is biochemical. To be noted: 5 μM compound, 15 minutes preincubation, 3 μM alkyne palmitoyl-CoA 30 minutes, pH 6.4, vs DMSO control. The protocol:
Each compound corresponding to a concentration of 5 μM was added to recombinant GST-TEAD1 proteins (209 to 426 a.a.) and cultured for 15 minutes. For an autopalmitoylation reaction of proteins after culturing, 3 μM alkyne palmitoyl-CoA (Cayman chemical) and 50 mM MES buffer (pH 6.4) were added and cultured for 30 minutes, after which 1% of sodium dodecyl sulfate (SDS) was added to stop the reaction. After that, biotinylation was performed through a CLICK (Click chemistry tools) reaction, and then a protein solution was concentrated to prepare a sample.
Analysis of the sample was performed using SDS-PAGE and streptavidin HRP (Thermo scientific). The resulting values were quantified using an Image J (NIH). For the intensity of the band obtained from Streptavidin blot, a palmitoylation inhibitory activity was analyzed based on the control group (DMSO). The normalization of each sample was performed using an anti-GST (91G1) (cell signaling) antibody.

T1 sequence (P28347 209-426): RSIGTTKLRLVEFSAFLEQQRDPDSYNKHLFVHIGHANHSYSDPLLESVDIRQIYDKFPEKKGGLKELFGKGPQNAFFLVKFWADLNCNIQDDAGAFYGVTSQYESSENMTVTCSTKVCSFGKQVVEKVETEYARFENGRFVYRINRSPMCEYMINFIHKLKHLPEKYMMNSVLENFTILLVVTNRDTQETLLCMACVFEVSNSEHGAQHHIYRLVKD

In general, inhibition refers to the percentage by which the read-out fell short of the control. For `C=CC(=O)Nc1cnc2c(c1)c(C)cn2Cc1ccc(C(F)(F)F)s1` [Compound 63, N-(3-methyl-1-((5-(trifluoromethyl)thiophen-2-yl)methyl)-1H-pyrrolo[2,3-b]pyridin-5-yl)acrylamide], the inhibition at 0.2 µM in experiment [1] lay in the range of 30 to 50%. For the same molecule, the inhibition at 5 µM in experiment [2] lay in the range of 40 to 80%.
For `C=CC(=O)Nc1cnc2c(c1)c(C)nn2-c1ccc(C(F)(F)F)c(OC)c1` [Compound 64, N-(1-(3-methoxy-4-(trifluoromethyl)phenyl)-3-methyl-1H-pyrazolo[3,4-b]pyridin-5-yl)acrylamide] the same measures were greater than 50% and 40 to 80%.
Taken in the same sequence, the figures for `C=CC(=O)Nc1cnc2c(c1)c(C)nn2Cc1ccc(C(F)F)cc1` [Compound 67, N-(1-(4-(difluoromethyl)benzyl)-3-methyl-1H-pyrazolo[3,4-b]pyridin-5-yl)acrylamide] were 30 to 50% and less than 40%.
With `C=CC(=O)Nc1cnc2c(c1)c(C)nn2C1=CCC(C(F)(F)F)CC1` (stereo not drawn) [Compound 68, N-(3-methyl-1-(4-(trifluoromethyl)cyclohex-1-en-1-yl)-1H-pyrazolo[3,4-b]pyridin-5-yl)acrylamide], the inhibition at 0.2 µM in experiment [1] is greater than 50%. In addition, the inhibition at 5 µM in experiment [2] is 40 to 80%.
On to `C=CC(=O)Nc1cnc2c(c1)c(C)nn2-c1ccc(C(F)F)cc1` [Compound 69, N-(1-(4-(difluoromethyl)phenyl)-3-methyl-1H-pyrazolo[3,4-b]pyridin-5-yl)acrylamide], for which, in experiment [1], the inhibition at 0.2 µM fell in the range of 30 to 50%. Also, in experiment [2], the inhibition at 5 µM was in the range of 40 to 80%.
The molecule `C=CC(=O)Nc1cnc2c(c1)c(C)nn2-c1ccc(F)cc1` [Compound 70, N-(1-(4-fluorophenyl)-3-methyl-1H-pyrazolo[3,4-b]pyridin-5-yl)acrylamide] returned an inhibition at 0.2 µM in experiment [1] of 30 to 50%. Also, the inhibition at 5 µM in experiment [2] was less than 40%.
For the molecule `C=CC(=O)Nc1cnc2c(c1)c(C)cn2Cc1ccc(C(F)F)cc1` [Compound 71, N-(1-(4-(difluoromethyl)benzyl)-3-methyl-1H-pyrrolo[2,3-b]pyridin-5-yl)acrylamide], the inhibition at 0.2 µM in experiment [1] fell in the range of 30 to 50%. Also, the inhibition at 5 µM in experiment [2] is less than 40%.
Taken in the same sequence, the figures for `C=CC(=O)Nc1cnc2c(c1)c(C)nn2-c1ccc(C(F)(F)F)c(Cl)c1` [Compound 72, N-(1-(3-chloro-4-(trifluoromethyl)phenyl)-3-methyl-1H-pyrazolo[3,4-b]pyridin-5-yl)acrylamide] were 30 to 50% and 40 to 80%.
For `C=CC(=O)Nc1cnc2c(c1)c(C)nn2-c1cccc(OC)c1` [Compound 73, N-(1-(3-methoxyphenyl)-3-methyl-1H-pyrazolo[3,4-b]pyridin-5-yl)acrylamide] the same measures were less than 30% and less than 40%.
For `C=CC(=O)Nc1cnc2c(c1)c(C)nn2-c1ccc(C(F)(F)F)c(C)c1` [Compound 74, N-(3-methyl-1-(3-methyl-4-(trifluoromethyl)phenyl)-1H-pyrazolo[3,4-b]pyridin-5-yl)acrylamide] the same measures were greater than 50% and 40 to 80%.
Turning to `C=CC(=O)Nc1cnc2c(c1)c(C)nn2-c1ccccc1C` [Compound 75, N-(3-methyl-1-(o-tolyl)-1H-pyrazolo[3,4-b]pyridin-5-yl)acrylamide], the inhibition at 0.2 µM in experiment [1] was less than 30%. Moreover, the inhibition at 5 µM in experiment [2] was in the range of 40 to 80%.
Taken in the same sequence, the figures for `C=CC(=O)Nc1cnc2c(c1)c(C)nn2-c1cc(F)cc(F)c1` [Compound 76, N-(1-(3,5-difluorophenyl)-3-methyl-1H-pyrazolo[3,4-b]pyridin-5-yl)acrylamide] were 30 to 50% and 40 to 80%.
For `C=CC(=O)Nc1cnc2c(c1)c(C)nn2-c1ccc(OCC(C)C)cc1` [Compound 78, N-(1-(4-isobutoxyphenyl)-3-methyl-1H-pyrazolo[3,4-b]pyridin-5-yl)acrylamide] the same measures were less than 30% and 40 to 80%.
For `C=CC(=O)Nc1cnc2c(c1)c(C)nn2-c1ccc(C(C)(C)C)cc1` [Compound 79, N-(1-(4-(tert-butyl)phenyl)-3-methyl-1H-pyrazolo[3,4-b]pyridin-5-yl)acrylamide] the same measures were 30 to 50% and 40 to 80%.
For the molecule `C=CC(=O)Nc1cnc2c(c1)c(C)nn2-c1ccc(C(C)CC)cc1` (stereo not drawn) [Compound 80, N-(1-(4-(sec-butyl)phenyl)-3-methyl-1H-pyrazolo[3,4-b]pyridin-5-yl)acrylamide], the inhibition at 0.2 µM in experiment [1] is 30 to 50%. Further, the inhibition at 5 µM in experiment [2] lay within 40 to 80%.
`C=CC(=O)Nc1cnc2c(c1)c(C)nn2-c1ccccc1OC` [Compound 81, N-(1-(2-methoxyphenyl)-3-methyl-1H-pyrazolo[3,4-b]pyridin-5-yl)acrylamide] had an inhibition at 0.2 µM in experiment [1] of less than 30%. Moreover, the inhibition at 5 µM in experiment [2] is less than 40%.
For `C=CC(=O)Nc1cnc2c(c1)c(C)nn2-c1ccccc1C(F)(F)F` [Compound 82, N-(3-methyl-1-(2-(trifluoromethyl)phenyl)-1H-pyrazolo[3,4-b]pyridin-5-yl)acrylamide] the same measures were less than 30% and less than 40%.
For `C=CC(=O)Nc1cnc2c(c1)c(C)nn2-c1ccccc1Br` [Compound 83, N-(1-(2-bromophenyl)-3-methyl-1H-pyrazolo[3,4-b]pyridin-5-yl)acrylamide] the same measures were less than 30% and less than 40%.
For the molecule `C=CC(=O)Nc1cnc2c(c1)c(C)nn2-c1cc(OC)cc(OC)c1` [Compound 84, N-(1-(3,5-dimethoxyphenyl)-3-methyl-1H-pyrazolo[3,4-b]pyridin-5-yl)acrylamide], the inhibition at 0.2 µM in experiment [1] is less than 30%. Besides, in experiment [2], the inhibition at 5 µM was less than 40%.
For `C=CS(=O)(=O)Nc1cnc2c(c1)c(C)nn2-c1ccc(C(F)(F)F)cc1` [Compound 85, N-(3-methyl-1-(4-(trifluoromethyl)phenyl)-1H-pyrazolo[3,4-b]pyridin-5-yl)ethenesulfonamide], the inhibition at 0.2 µM in experiment [1] was greater than 50%. In addition, the inhibition at 5 µM in experiment [2] is greater than 80%.
In experiment [1], `C=CC(=O)Nc1cnc2c(c1)c(C)nn2-c1ccc(C(F)(F)F)c(O)c1` [Compound 87, N-(1-(3-hydroxy-4-(trifluoromethyl)phenyl)-3-methyl-1H-pyrazolo[3,4-b]pyridin-5-yl)acrylamide] showed an inhibition at 0.2 µM of less than 30%. The inhibition at 5 µM in experiment [2] was in the range of 40 to 80%.
For `CC=CC(=O)Nc1cnc2c(c1)c(C)nn2-c1ccc(C(F)(F)F)cc1` [Compound 88, N-(3-methyl-1-(4-(trifluoromethyl)phenyl)-1H-pyrazolo[3,4-b]pyridin-5-yl)but-2-enamide] the same measures were 30 to 50% and 40 to 80%.
`C=CC(=O)Nc1cnc2c(c1)c(C)nn2-c1ccc(C(F)(F)F)s1` [Compound 89, N-(3-methyl-1-(5-(trifluoromethyl)thiophen-2-yl)-1H-pyrazolo[3,4-b]pyridin-5-yl)acrylamide]: the inhibition at 0.2 µM in experiment [1] was greater than 50%. In experiment [2], the inhibition at 5 µM lay in the range of 40 to 80%.
In turn, `C=CC(=O)N(C)c1cnc2c(c1)c(C)nn2-c1ccc(Cl)cc1` [Compound 91, N-(1-(4-chlorophenyl)-3-methyl-1H-pyrazolo[3,4-b]pyridin-5-yl)-N-methylacrylamide] displayed an inhibition at 0.2 µM in experiment [1] greater than 50%. Also, the inhibition at 5 µM in experiment [2] is greater than 80%.
For `C=CC(=O)Nc1cnc2c(c1)c(C)nn2-c1ccc(F)nc1` [Compound 93, N-(1-(6-fluoropyridin-3-yl)-3-methyl-1H-pyrazolo[3,4-b]pyridin-5-yl)acrylamide] the same measures were 30 to 50% and 40 to 80%.
Taken in the same sequence, the figures for `C=CC(=O)Nc1cnc2c(c1)c(C)nn2-c1cccnc1` [Compound 94, N-(3-methyl-1-(pyridin-3-yl)-1H-pyrazolo[3,4-b]pyridin-5-yl)acrylamide] were less than 30% and less than 40%.
The molecule `C=CC(=O)Nc1cnc2c(c1)c(C)nn2-c1ccc(Cl)c(Cl)c1` [Compound 96, N-(1-(3,4-dichlorophenyl)-3-methyl-1H-pyrazolo[3,4-b]pyridin-5-yl)acrylamide] displayed an inhibition at 0.2 µM in experiment [1] greater than 50%. The inhibition at 5 µM in experiment [2] fell in the range of 40 to 80%.

The values are drawn from patent US20250171451A1, “NOVEL HETEROCYCLIC COMPOUND AND PHARMACEUTICAL COMPOSITION COMPRISING SAME” (Samjin Pharmaceutical Co., Ltd., priority 2022, published 2025).
